Series [1] has as its system Escherichia coli ATCC35218. Briefly: MIC, microtiter turbidity test. The format is cell-based. Particulars: Escherichia coli ATCC35218, MHII medium, turbidity at 600 nm, n=3; read-out: MIC Ec.
The subject of series [2] is Staphylococcus aureus ATCC33592. Briefly: MIC, microtiter turbidity test. The format is cell-based. Conditions: Staphylococcus aureus ATCC33592 (MRSA), MHII medium, turbidity at 600 nm, n=3, read-out: MIC Sa.
Series [3] deals with Septoria tritici MUCL45408. Briefly: MIC, BacTiter-Glo ATP quantification. The format is cell-based. Conditions: Septoria tritici MUCL45408, PDB medium, 4 days, BacTiter-Glo, n=3, read-out: MIC Str.
The test system of series [4] is Mycobacterium tuberculosis H37Ra. Briefly: MIC, BacTiter-Glo ATP quantification, surrogate Mtb strain. The format is cell-based. Conditions: Mycobacterium tuberculosis, H37RA, 168 h, read-out: MIC Mtb, Mycobacterium tuberculosis H37Ra, 7H9-palmitate, 7 days, BacTiter-Glo, n=3. On the procedure: The antimicrobial effect of the 21 synthesized compounds was initially accessed against a panel of 4 microbial indicator strains (Escherichia coli ATCC35218, Staphylococcus aureus ATCC33592, Septoria tritici MUCL45408 and Mycobacterium tuberculosis H37Ra). Cytotoxicity was investigated using an epithelia cell line from human lung carcinoma (Calu-3).
The minimum inhibitory concentration (MIC) of the […] compounds 5a-i, 6a-b,7a, 8a and C1-8 was determined as previously described with only minor changes. 6,7 Briefly, the cell density of an overnight cultures of Escherichia coli ATCC35218 and Staphylococcus aureus […] was diluted to 5 × 10^5 cells/mL in cation adjusted Mueller Hinton II medium (Becton Dickinson, Sparks, NV, USA) and distributed into 96-well plates. Three 12-point dilution series of rifampicin, tetracycline and gentamicin ranging from 64 - 0.03 µg/mL (all Sigma Aldrich, St. Louis, MO, USA), respectively, were used as positive controls. All tested compounds were dissolved in dimethyl sulfoxide (DMSO, Carl Roth GmbH + Co., Karlsruhe, Germany) and tested in triplicate at the same concentrations as the positive controls.
Bacterial suspensions without test compound or positive control were used as negative controls.
Medium background was averaged from 5 replicates. Assay incubation was done at 37°C, 180rpm and 85% relative humidity. The turbidity of each well was measured with a microplate spectrophotometer at 600 nm (LUMIstar® Omega BMG Labtech, Ortenberg, Germany). Growth inhibition was calculated relative to the absorption of the controls.
For S. tritici MUCL45408, a previously prepared spore solution was used to adjust the assay inoculum to 1 × 10^5 spores/mL in potato dextrose medium (Sigma Aldrich). Septoria assay plates were incubated for 4 days at 25°C, 180 rpm and 85% rH. Tebuconazole (Cayman Chemical Company, Ann Arbor, MI, USA) and amphotericin B (Sigma Aldrich) were used as positive control. Cell viability was evaluated via ATP quantification (BacTiter-Glo™, Promega, Walldorf, Germany) according to the manufacturer’s […]
Mycobacterium tuberculosis ITM-M006710 H37Ra (ATCC 9431) was incubated for 14 days in Middlebrook 7H9 broth (from ThermoFisher Scientific, Walthman, MA, USA) supplemented with 5.6 µg/mL palmitic acid (Sigma Aldrich), 1 mg/mL casitone (ThermoFisher Scientific), 5mg/mL BSA, 4µg/mL catalase (Sigma Aldrich), and 0.2% glycerol at 37°C, 180 rpm and 85% rH. In a first step, the culture was diluted to McFarland standard of 1, before the final inoculum density of a 1 × 10^6 cells/mL was obtained by further dilution with freshly prepared medium. Individual 12-point dilution series of rifampicin, ampicillin and gentamicin (ranging from 64-0.03 µg/mL) were used as positive controls. The assay plates were incubated for 7 days under microaerophilic conditions at 37°C/5% CO2 (BD gaspak CO2 system) and read-out was done by ATP quantification (s. above).
The MIC was defined as the minimum concentration where at least 85% growth inhibition relative to the negative control was measured. Relative inhibition for the microtiter turbidity tests (MTT) were […]
rel. inh.% = 100 * [1- (AU sample - AU Low)/(AU High - AU Low)]
AU: absorption unit at 600nm; Low: medium blank; High: negative control of maximal growth.
Accordingly, the BacTiter-Glo™ (BTG) assays were calculated as rel. inh.% = 100 * [1- (LU sample - LU Low)/(LU High - LU Low)]
AU: luminescence unit; Low: medium blank; High: negative control of maximal growth.
For Mycobacterium tuberculosis ATCC 35801 a resazurin microtiter assay was carried out as previously described8 Briefly, assay plates were set up by transferring 10 µl of compounds form a 1:2-fold dilution series in distilled and sterile water to a 96-well plate. The final assay´s concentrations range from 0.39-100 µM and as positive and negative control 5 µM rifampicin and 0.5% DMSO were used. Subsequently a bacterial suspension with Mycobacterium tuberculosis with a final OD560 of 0.0003 was prepared in […]

The subject of series [5] is Mycobacterium tuberculosis ATCC 35801. Briefly: Resazurin microtiter assay, second-tier BSL-3. The format is cell-based.
A short description of series [6]: in vitro. Particulars: human.
For series [7], the system named is various Mtb strains. Further details: method as in PMID 27654337, PMID 29900893, PMID 36934122, PMID 32750539. Particulars: cited from earlier work.

Structures are written as SMILES. Like-named read-outs stand apart in the source and are kept apart here. Bounds are passed on as bounds.

As for `c1ccc(-c2nc(-c3cc4ccccc4cn3)c3ccc4ccccc4n23)cc1` [5g], the MIC is above 144 µM in series [1]; above 144 µM in series [2] (ATCC 33592 / MRSA); above 144 µM in series [2]; above 144 µM in series [3]; above 144 µM in series [3] (Zymoseptoria tritici, 96 h); at most 2 µM in series [4]. This compound returned an inhibition at 20 µM in series [5] (ATCC35801, Mtb ATCC 35801, 20 μM) of 82%. The IC90 in series [5] (ATCC35801, read-out: IC90 Mtb ATCC 35801, resazurin, 7 days + 24 h) worked out at 132 µM; in series [5] (ATCC35801, resazurin, 7 days + 24 h, read-out: IC90 Mtb ATCC 35801), 136 µM. Further, in series [5] (ATCC35801, resazurin, 7 days + 24 h, read-out: IC50 Mtb ATCC 35801), the IC50 is 86.5 µM. Also, in series [6], the IC50 at 3 days was above 100 µM.
`C[C@H]1COc2c(N3CCN(C)CC3)c(F)cc3c(=O)c(C(=O)O)cn1c23` [levofloxacin]: in series [7], the “MIC, literature reported values” is 0.8 to 1.4 µM.
